Assay results taken from PubChem BioAssay AID179 (DTP/NCI, 2004).
Several values for one entry are separate records, joined by “and”; a condition that tells them apart may be missing. Equal values may be shown once. Activity calls are given as the source filed them.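 The calls were made as follows: active = compounds giving half or more protection of infected cells from virus-caused growth loss, again on retest; inactive = the rest.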

System: CEM cells HIV-1 protection, formazan growth assay
Assay: NCI AIDS Antiviral Assay
Settings: for IC50: measured here: growth of uninfected CEM cells
Method in brief: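 Five concentrations of each compound were applied to infected and uninfected human CEM cells. Protection from HIV-1 was judged from growth measured with a soluble formazan assay.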

SMILES	EC50	IC50	outcome
CCCCC1OCCOC1C1COCCO1 (stereo not drawn)	> 195 µM	> 195 µM	–
O=C(O)c1cc(Cl)cc(NC(=O)C(Cl)Cl)c1Cl	> 794 µM	617 µM	–
O=C(O)CCC(=O)c1ccc2c(c1)C(C(=O)O)CC2 (stereo not drawn)	> 200 µM	> 200 µM	–
O=C(O)COc1ccc(S(=O)(=O)c2ccc(OCC(=O)O)c([N+](=O)[O-])c2)cc1[N+](=O)[O-]	> 200 µM	> 200 µM	–
C=CCCC(=O)C(=[N+]=[N-])C(=O)CCC(=O)c1ccccc1	> 200 µM	20 µM	–
O=C(O)CCCCCCCCCCCO	> 200 µM	> 200 µM	–
CCCN(CCc1ccc(-c2ccccc2)cc1)CCc1ccc2n[nH]nc2c1	> 200 µM	10 µM	–
Cc1ccc(C[N+](C)(C)c2ccccc2)o1	> 724 µM	102 µM	–
ClC(Cl)(Cl)C1OCOC(C(Cl)(Cl)Cl)OCO1 (stereo not drawn)	> 200 µM	> 200 µM	–
CCSc1nnc2c(-c3ccccc3)n[nH]c2n1	–	–	inactive
O=C(O)C1CSC(c2cccs2)N1 (stereo not drawn)	> 200 µM	> 200 µM	–
CCCc1cc(=O)oc2c3c(c4c(c12)OC(C)(C)[C@H](O)[C@@H]4O)O[C@@H](C)[C@H](C)[C@@H]3O	> 200 µM	87.1 µM	–
C=C1CC2CCCC12C=O (stereo not drawn)	> 263 µM	145 µM	–
CN(C)C1(C#N)CCC2(CC1)OCCO2	–	–	inactive
O=C(O)CCC(=O)Oc1ccc(O)c2c1CCCC2=O	> 339 µM	> 339 µM	–
CC1=CC[C@@H]2C(=O)C=CC=C[C@H]12.[C-]#[O+].[C-]#[O+].[C-]#[O+].[Fe]	> 316 µM	178 µM	–
Cc1ccnc(NS(=O)(=O)c2ccc(N=Nc3cc4ccccc4c(C(=O)O)c3O)cc2)n1	> 200 µM	10 µM	–
CCOC(=O)C(=Cc1ccccc1OC)C(=O)OCC	> 129 µM	21.9 µM	–
COc1ccc(C2CC(=O)c3c(O)cc(OC4OC(CO)C(O)C(O)C4OC4OC(C)C(O)C(O)C4O)cc3O2)cc1O (stereo not drawn)	> 200 µM	> 200 µM	–
COc1ccc2c(c1)C(=O)C1NC(=O)NC(=O)C1(Br)N2 (stereo not drawn)	> 200 µM	> 200 µM	–
CN1C/C(=C/c2ccc(N(C)C)cc2)C(=O)/C(=C/c2ccc(N(C)C)cc2)C1	> 200 µM	> 200 µM	–
C1COC(NC(C2CC2)C2CC2)=N1	–	–	inactive
Cc1ccc(-c2nn3c(-c4ccccc4)nnc3o2)cc1	> 200 µM	132 µM	–

SMILES	EC50	IC50	outcome
Fc1ccc(C2SCc3nc4ccccc4n32)cc1Cl (stereo not drawn)	> 72.4 µM	25.7 µM	–
OC1C2CCN(CC2)C1CNC12CC3CC(CC(C3)C1)C2 (stereo not drawn)	> 1740 µM	295 µM	–
Cc1c(-c2ccc(-c3ccccc3F)cc2)nc2ccc(F)cc2c1C(=O)O	> 631 µM	0.2 µM	–
O=c1ncc2[nH]c(=S)[nH]c2[nH]1	> 200 µM	> 200 µM	–
CCOC(=O)c1c(C(CC)C(=O)OC(C)C)cc2n(c1=O)Cc1c-2nc2ccccc2c1Cl (stereo not drawn)	> 10 µM	> 10 µM	–
O=C(OCc1ccccc1)/C(c1ccccc1)=[N+]1/C(=S)Nc2ccc([N+](=O)[O-])cc21	> 200 µM	105 µM	–
O=C(O)O	–	–	inactive
CCNc1ccccc1S(=O)(=O)c1ccccc1[N+](=O)[O-]	> 0.741 µM	–	–
CN(C)c1nc(=NCc2cccnc2)ss1	> 200 µM	11.5 µM	–
Cc1cc(NS(=O)(=O)c2ccc(NC(=O)c3ccc4nc5ccccc5c(Nc5ccc(S(N)(=O)=O)cc5)c4c3)cc2)no1	> 81.3 µM	29.5 µM	–
CN(C)CCC=C1c2ccccc2C(C)(C)c2ccccc21	> 141 µM	25.1 µM	–
NC(Cc1ccccc1CP(=O)(O)O)C(=O)O (stereo not drawn)	> 200 µM	> 200 µM	–
CCC(C)(O)c1cn(-c2ccc(Cl)cc2)nn1 (stereo not drawn)	> 708 µM	324 µM	–
FC1(F)[Se]C2C3CCC(C3)C2C1(F)F (stereo not drawn)	> 200 µM	> 200 µM	–
O=C(NC1C=Nc2ccc(Cl)cc2NC1=O)c1ccc(Cl)cc1 (stereo not drawn)	> 200 µM	> 200 µM	–
CC1C2C=C(O)C(=O)C(C2=O)C1c1ccccc1 (stereo not drawn)	> 741 µM	141 µM	–
COC(=O)CC1CC2(C(=O)OC)c3[nH]c4ccccc4c3CCN2C1=O (stereo not drawn)	> 224 µM	> 224 µM	–
CSC1CC2C(CC1(C)O)C2(C)C (stereo not drawn)	> 200 µM	162 µM and > 200 µM	–
CC(=O)NC1C(O)CC(O)(C(=O)O)OC1C(O)C(O)CO (stereo not drawn)	–	–	inactive
O=C1Nc2cnc(Cl)nc2Nc2ccccc21	> 75.9 µM	> 75.9 µM	–
Nc1ccc([N+](=O)[O-])cc1N=C/C=C/c1ccccc1	> 10.2 µM	> 10.2 µM	–
CCC(C)N1CN(c2ccccc2)C2(CCN(CCCC3(c4ccc(F)cc4)OCCO3)CC2)C1=O (stereo not drawn)	> 200 µM	6.92 µM	–
Nc1cc([N+](=O)[O-])ccc1N1C(=O)CCCC1=O	> 200 µM	> 200 µM	–

SMILES	EC50	IC50	outcome
COc1ncc(C#CC(=O)c2ccccc2)c(OC)n1	> 2 µM	0.331 µM	–
COc1cccc(OC)c1/C=N\N1C(=O)c2ccccc2C1=O	> 115 µM	12 µM	–
Cc1ccc(Oc2ccc([N+](=O)[O-])cc2[N+](=O)[O-])c(C)c1	–	–	inactive
CC(=O)OCC1OC(n2c3c(c(-c4cccc5ccccc45)c(C#N)c2=S)CCCC3)C(OC(C)=O)C(OC(C)=O)C1OC(C)=O (stereo not drawn)	> 200 µM	47.9 µM	–
Cc1ccc(-c2n[nH]c(=O)n2N2C(=O)C=CC2=O)cc1	49 µM	501 µM	–
O=C(NNC(=O)c1ccccc1S)c1ccccc1S	4.17 µM	14.5 µM	–
O=C(O)CC(Cc1ccc2c(c1)OCO2)C(=O)O (stereo not drawn)	> 200 µM	> 200 µM	–
O=C1C=C(NC(=O)C2CCCCC2)c2ncccc2C1=O	–	–	inactive
O=C(O)c1ccc(CSc2ccccc2)c([N+](=O)[O-])c1	> 631 µM	245 µM	–
CCN(CC)c1c([N+](=O)[O-])c(=O)nc2ccccn12	> 200 µM	105 µM	–
COc1ccc(NC(C)=O)cc1N1C(=O)/C(=C\c2cc(OC)c(OC)c(OC)c2)SC1c1ccccc1 (stereo not drawn)	–	–	inactive
COc1ccc([N+](=O)[O-])c2c(NCCCN(C)C)c3ccccc3nc12	> 0.2 µM	0.138 µM	–
O=[N+]([O-])c1ccc2c(c1)Sc1ccccc1N2CCCCCl	> 200 µM	19.1 µM	–
CCCC(=O)OCC(COC(=O)CCC)OC(=O)CCC	> 200 µM	> 200 µM	–
[Ni+2].[O-]/C(=N\N=C/c1cccc(C(F)(F)F)c1)c1ccncc1.[O-]/C(=N\N=C\c1cccc(C(F)(F)F)c1)c1ccncc1	> 100 µM	15.8 µM	–
OC1(CCc2ccccc2)COC(C(F)(F)F)(C(F)(F)F)C1 (stereo not drawn)	> 200 µM	> 200 µM	–
O=S(=O)(O)CN(CS(=O)(=O)O)c1nc(N(CS(=O)(=O)O)CS(=O)(=O)O)nc(N(CS(=O)(=O)O)CS(=O)(=O)O)n1	> 100 µM	15.5 µM	–
Nc1ccn(C2CCC(CO)O2)c(=S)n1 (stereo not drawn)	> 200 µM	> 200 µM	–
O=C(Nc1ccccc1)N1N=C(c2ccccc2)C1c1ccccc1 (stereo not drawn)	> 200 µM	24.5 µM	–
C=C1C(=O)C23C(O)C1CC[C@H]2C12CCCC(C)(C)[C@H]1[C@H](O)[C@]3(O)OC2 (stereo partly drawn)	> 724 µM	0.339 µM	–
COc1ccc(NC(=O)CC(=O)n2nc(-c3ccccc3)c(N=Nc3ccc(C)cc3)c2-c2ccccc2)cc1	> 9.77 µM	> 9.77 µM	–
CC1=NC(=O)CNN1C1=NNC2(C(=O)N1)c1ccccc1-c1ccccc12	> 100 µM	> 100 µM	–
CCOC(=O)CN1C(=O)C(=O)N(c2ccc(OC)c3ccccc23)C1=O	> 200 µM	> 200 µM	–

SMILES	EC50	IC50	outcome
CCOC(=O)/C(=C\c1cccc(C(F)(F)F)c1)[Se]c1ccccc1	> 18.2 µM	> 18.2 µM	–
Cc1sc(C)c2c1C(=O)CC2N (stereo not drawn)	> 200 µM	9.77 µM	–
c1ccc2c(c1)ccc1c2nc2c3ccccc3[nH]n12	0.245 µM	10.7 µM	–
COc1ccc(OP2OCC(C)O2)cc1 (stereo not drawn)	> 1100 µM	46.8 µM	–
C=C(C)[C@@H]1CC[C@]2(COC(=O)CC(C)CC(=O)O)CC[C@]3(C)[C@H](CC[C@@H]4[C@@]5(C)CC[C@H](OC(=O)CC(C)CC(=O)O)C(C)(C)[C@@H]5CC[C@]43C)[C@@H]12 (stereo partly drawn)	> 200 µM	19.1 µM	–
O=[N+]([O-])c1ccc2c(N=Nc3ccc4ccccc4c3O)c(O)cc(S(=O)(=O)O)c2c1	> 200 µM	27.5 µM	–
CN1C(=O)C(O)Nc2ncncc21 (stereo not drawn)	> 200 µM	32.4 µM	–
O=c1[nH]nc(Cc2ccc(Cl)cc2)n1/N=C\CC/C=N\n1c(Cc2ccc(Cl)cc2)n[nH]c1=O	> 200 µM	148 µM	–
COc1ccc(C(=O)Nc2ccn(CCOC(=O)c3ccc(OC)cc3)c(=O)n2)cc1	> 44.7 µM	> 44.7 µM	–
N#C/C(=C\c1cccc(OCc2ccccc2)c1)c1ccc([N+](=O)[O-])cc1	> 200 µM	151 µM	–
COc1ccc(C23OC2Oc2cc(OC4CCCCO4)ccc2C3=O)cc1 (stereo not drawn)	> 70.8 µM	45.7 µM	–
CCOC(=O)c1cc2c(nc1N)/C(=C/c1ccccc1)CCCC2	> 200 µM	10.7 µM	–
NC(CCCCNCc1ccccc1O)C(=O)O (stereo not drawn)	> 178 µM	> 178 µM	–
O=c1oc2ccccc2c(O)c1C(c1ccc(C(c2c(O)c3ccccc3oc2=O)c2c(O)c3ccccc3oc2=O)cc1)c1c(O)c2ccccc2oc1=O	> 200 µM	50.1 µM	–
CC(C)C(=O)OCC1OC(n2c(Br)nc3c(=O)[nH]c(N)nc32)C(OC(=O)C(C)C)C1OC(=O)C(C)C (stereo not drawn)	> 200 µM	91.2 µM	–
Cc1ccc(NC(=O)C(=O)C2C(=O)N(c3ccccc3)N=C2N)cc1C (stereo not drawn)	–	–	inactive
CCOC(=O)/C(C#N)=C/c1cccc(C)c1	> 120 µM	> 120 µM	–
O=C1C(Cl)C(c2cc(Br)cc(Br)c2O)N1n1cnc2ccccc2c1=O (stereo not drawn)	> 10.5 µM	> 10.5 µM	–
COC(OC)c1cccc2c1C1(O)CCC3(CC21)OCCCCO3 (stereo not drawn)	> 200 µM	> 200 µM	–
COc1ccc([C@]23CCC4(OCC(C)(C)CO4)[C@H]4CON(O[C@H](O[C@@H]5CCCCC5C(C)(C)c5ccccc5)C2)[C@@H]43)cc1OC (stereo partly drawn)	> 50.1 µM	> 50.1 µM	–
